Source: a melting point compilation (Tetko et al.; mined from patent text by program, amines drawn as free bases though some values may be those of a salt)

For `Cn1c(=O)ccc2cnc(S(C)(=O)=O)nc21`, the melting point was 194 to 196 °C. With `COc1cc2c(c3c1OC(C)(C)C3)C(c1cccc(NC(=O)c3ccc(Cl)nc3Cl)c1)=NC(C)(C)C2` the melting point was 130 to 132 °C. Work on `CC(C)(C)COc1ccc(C2=CC=CN3CCS(=O)(=O)N=C23)cc1` yielded a melting point of 258 to 259 °C. Molecule `CC(C)(C)NC(=O)NCc1ccc2c(c1)CN(C1CCC(=O)NC1=O)C2=O` (configuration not stated) has a melting point of 260 to 262 °C. `O=Cc1c(O)cccc1OCCCC(=O)O` showed a melting point of 151 to 153 °C. In the case of `C=CCOC1CC2C3CCC4=CC(=O)CCC4(C)C3(F)C(O)CC2(C)C1(O)C(=O)CCl` (configuration not stated), the melting point is reported as 224 to 225 °C. `CC1(C)OC(c2ccc(S(C)(=O)=O)cc2Cl)=C(c2ccccc2)C1=O` gave a melting point of 89 to 90 °C. With `C=CS(=O)(=O)N1CCC(N2N=C(c3ccc(OC)c(OC)c3)[C@H]3CC=CC[C@H]3C2=O)CC1` the melting point was 89 to 90 °C. Work on `CCN(CC)CCN=C1CC(c2ccc(Cl)c(Cl)c2)Cc2c1c(=O)c1cc(Cl)ccc1n2O` (configuration not stated) yielded a melting point of 212 to 213 °C. Molecule `CC(C)(C)OC(=O)N[C@H]1CC[C@@H](OS(C)(=O)=O)C1` has a melting point of 88 to 89 °C. For `Cn1cc(C(F)(F)F)c(C(=O)O)c1F`, the melting point was 190 to 191 °C. `Cc1cc(Oc2ccc(Cl)c3c2CCCC3)c(Cl)cc1[N+](=O)[O-]` gave a melting point of 139 to 140 °C. Molecule `O=CC(c1ccccc1)c1nc(-c2ccncc2)cs1` (configuration not stated) has a melting point of 163 to 164 °C. `OCC1OC(n2cnc3c(NCCc4c[nH]c5ccccc45)ncnc32)C(O)C1O` (configuration not stated) showed a melting point of 187 °C. `O=C(c1cc(C(F)(F)F)cc(C(F)(F)F)c1)N1CCC2(CC1)C(=O)NCN2c1ccccc1Cl` gave a melting point of 157 to 159 °C. With `O=C(O)CCCCCCCc1nn(-c2ccccc2)c2c1CCC2` the melting point was 55 to 57 °C. In the case of `C=C(Cl)C(=O)Nc1ccc(Cl)cc1`, the melting point is reported as 105 to 106 °C. `OCC12CO[C@@H](c3ccc(C(F)(F)F)cc3)N1[C@H](c1ccc(C(F)(F)F)cc1)OC2` gave a melting point of 120 °C. In the case of `CN1CCCC(c2cc3ccccc3c(=O)[nH]2)C1` (configuration not stated), the melting point is reported as 155 to 156 °C. With `COc1ccc(N=C2SC(=CC(=O)O)C(=O)N2c2ccc(OC)cc2)cc1` the melting point was 184 to 187 °C. `Cc1cc(C)c(S(=O)(=O)n2c(CCC(=O)O)cc3cc(Cl)ccc32)c(C)c1` showed a melting point of 132 to 134 °C. For `CC(C)(C)NCC(O)COc1cccc2nsnc12` (configuration not stated), the melting point was 89 to 91 °C. Molecule `CCc1cccc(C)c1C(=O)N[C@@H](Cc1ccc([N+](=O)[O-])cc1)C(=O)OC` has a melting point of 119 to 121 °C. `Brc1ncccc1-c1cccnc1` gave a melting point of 97 to 98 °C. `CC(C)(C)[Si](C)(C)Oc1cc(Br)c2oc(-c3ccc(O[Si](C)(C)C(C)(C)C)c(F)c3)nc2c1` showed a melting point of 98 to 99 °C. With `COC(=O)/C(=C/C1CCCCCC1)c1ccc(S(C)(=O)=O)c(C(F)(F)F)c1` the melting point was 151 to 156 °C. Work on `COC1(c2cc(F)cc(OCc3ccc(C(=O)O)cc3)c2)CCOCC1` yielded a melting point of 184 to 186 °C. Work on `CN1CCN(C(=S)Nc2cc3sc(C(C)(C)C)nc3cc2N2CCN(C)CC2)CC1` yielded a melting point of 190 to 193 °C. With `O=C(O)c1cccc2cc(Oc3c(Cl)cc(NS(=O)(=O)c4ccc(Cl)cc4Cl)cc3Cl)cnc12` the melting point was 263 to 266 °C. In the case of `CC(C)CC(NC(=O)OC(C)(C)C)C(O)c1ccccn1` (configuration not stated), the melting point is reported as 83 to 84 °C. With `CCN(CC)C(=O)CCCCCN1CCC(NC(=O)c2cnc3c(OC)cccc3c2Nc2ccc(C(=O)NC3CCN(Cc4ccccc4)CC3)cc2)CC1` the melting point was 115 to 120 °C. With `O=C(C=Cc1ccc(CNC2CCCCC2)cc1)Nc1ccc(-c2ccc(Cl)cc2)cc1` the melting point was 247 to 248 °C. With `OCc1cccc(C=Cc2cccc(-c3ccsc3)c2)c1` the melting point was 79 to 81 °C. `CCN(CC)C(=O)/C=C(\C)c1ccc(OC(C)c2ccccc2)c2oc(C(C)=O)cc12` (configuration not stated) showed a melting point of 70.8 to 73 °C. In the case of `c1c(NC23CC4CC(CC(C4)C2)C3)nc(N2CCNCC2)nc1NC12CC3CC(CC(C3)C1)C2`, the melting point is reported as 210 to 220 °C. `Cc1oc(-c2ccccc2)nc1COc1ccc(COc2nn(Cc3ccccc3)cc2CC(=O)O)cc1` showed a melting point of 91 to 92 °C. With `CCS(=O)(=O)N(Cc1cccnc1)c1ccc(F)cc1F` the melting point was 91 to 92 °C. Molecule `CCCCCCCCCCCCCCn1ccc(C(=O)OCC)c1` has a melting point of 32 to 33 °C. With `O=C1NC(=O)C(Cc2ccc(CCNCC(O)COc3ccc(OCc4ccccc4)cc3)cc2)S1` (configuration not stated) the melting point was 51 to 53 °C. Work on `COc1ccc(NC(=O)c2ccc3c(c2)C(C)(C)C(=O)N3)cc1` yielded a melting point of 169 to 171 °C. `CCNC(=S)NS(=O)(=O)c1cc2c(cc1OC)OCC(NC(=O)c1cc(Cl)ccc1OC)C2` (configuration not stated) showed a melting point of 194 to 195 °C. Molecule `CCCS(=O)(=O)c1cccnc1S(N)(=O)=O` has a melting point of 153 to 157 °C. For `CCc1cc2c(s1)N(C(=O)NCCN(C)C)CCN=C2c1ccccc1Cl`, the melting point was 160 to 162 °C. Work on `CCn1nc(OCCCc2ccc(OCCOC)cc2OCc2ccc(Cl)cc2Cl)cc1CCC(=O)O` yielded a melting point of 114 to 116 °C. Work on `CCCc1cc(-c2nc(-c3ccc(C)cc3)cs2)ccn1` yielded a melting point of 190 to 193 °C. Molecule `O=C1C[C@@H](NC(=O)OCc2ccccc2)C(=O)O1` has a melting point of 126 to 127 °C. `CN1C(=O)c2cc(Nc3ccccc3)c(Nc3ccccc3)cc2C1=O` showed a melting point of 195 to 196 °C. Work on `COC(=O)c1cc(Cl)c(I)cc1OC` yielded a melting point of 72 to 73 °C. `CCCCCCC(=N)NC(=S)Nc1cccc(C(F)(F)F)c1` showed a melting point of 105 to 107 °C. In the case of `CC(C)OC(=O)c1nc(-c2ccc(=O)[nH]c2)c(-c2ccccc2)nc1N`, the melting point is reported as 250 to 256 °C. Work on `Clc1ccc2c(c1)CCc1cccnc1C2=C1CCN(Cc2cccnc2)CC1` yielded a melting point of 115 °C. `Cc1ccc(N(Cc2cccnc2)S(C)(=O)=O)cc1` gave a melting point of 143 to 146 °C. `N#Cc1cnc2cc(-c3ccc(CCN4CCOCC4)s3)ccc2c1Nc1ccc(Cl)cc1Cl` showed a melting point of 168 to 169 °C. Work on `NC(=O)COCCOCCN1CCC(=C(c2ccccc2)c2ccccc2)CC1` yielded a melting point of 51 to 53 °C. For `CCCc1c(OCCc2cc3cc(CC(=O)O)ccc3[nH]2)ccc2c(-c3ccccc3)coc12`, the melting point was 129 to 130 °C. Work on `COc1c(C)cc(C(=O)c2ccc([N+](=O)[O-])cc2)cc1C` yielded a melting point of 131 to 132 °C. For `O=C(C=Cc1ccccc1)Nc1ccccc1NC(=O)C=Cc1ccccc1`, the melting point was 212 °C. `COc1cc2c(CC(=O)O)c(C)n(C(=O)c3ccccc3)c2cc1F` gave a melting point of 118 to 120 °C. Work on `Cc1nc(N)nc(N)c1-c1cc(N)ccc1Cl` yielded a melting point of 117 to 121 °C. With `CCCc1nc(C(=O)OCC)c(C(=O)OCC)[nH]1` the melting point was 81 to 83 °C. Work on `CN1Cc2c(C(=O)OCC3CC3)ncn2-c2cccc(Cl)c2C1=O` yielded a melting point of 194 to 195 °C. Molecule `CCCCOc1c(-c2cc(C=CC(=O)O)ccc2O)cc(C(C)(C)C)cc1C(C)(C)C` has a melting point of 92 to 94 °C. In the case of `Cc1cc(C2=NOC(c3cc(Cl)cc(Cl)c3)(C(F)(F)F)C2)ccc1Cl` (configuration not stated), the melting point is reported as 110 to 111 °C. With `Cc1nnc(CNC(=O)[C@H](Cc2ccccc2)NC(=O)OCc2ccccc2)n1-c1ccc(Cl)cc1C(=O)c1ccccc1` the melting point was 84 to 88 °C. With `CCOC(=O)c1ccc(OCC2CN(c3nnc(C)s3)CCO2)cc1` (configuration not stated) the melting point was 112 °C. With `CC(=O)c1ccc2c(c1)C(NC(=NC#N)Nc1ccccc1)C(O)C(C)(C)O2` (configuration not stated) the melting point was 182 to 184 °C. In the case of `CC(C)(O)c1ccc(CNC(=O)c2cccnc2Oc2cc(F)cc(F)c2)cc1`, the melting point is reported as 68 to 70 °C. Work on `COC(=O)c1ccc(Cl)c2nc(C(C)(C)C)oc12` yielded a melting point of 130 to 131 °C. Molecule `CCOC(=O)c1c(C(F)(F)F)nc2c(C(F)(F)F)cccc2c1O` has a melting point of 68 °C. With `N#CC(C(=O)c1ccc(NS(=O)(=O)C(F)(F)F)cc1)=C1CCCCN1` the melting point was 197 °C. For `CC(=O)N1CCN(c2ccc(N)cc2)CC1`, the melting point was 142 to 144 °C. Molecule `CCCC[C@H](NC(=O)[C@H](CC(C)C)NC(=O)c1ccc(C(=O)OC)cc1)C(=O)CSCc1ccco1` has a melting point of 100 to 102 °C. With `COc1cccc(-c2nc(N)nc(Nc3ccc(O)cc3)n2)c1` the melting point was 93.5 to 94 °C. Work on `COc1cc(OCC(=O)N2CCOCC2)c(C=CC(=O)c2ccc(C(=O)O)cc2)cc1-c1cccs1` yielded a melting point of 231 to 233 °C. Molecule `COc1ccc(N2CCN(CCC3OCCc4c(Br)cccc43)CC2)cc1` (configuration not stated) has a melting point of 105 to 106 °C. With `O=C1C=CC(O)(c2cc3ccccc3s2)C=C1` the melting point was 185 to 188 °C. `Cc1n[nH]c2cc(F)ccc12` gave a melting point of 116 to 117 °C. For `CC(C)(C)n1nnc(-c2ccccc2-c2ccc(C=O)cc2)n1`, the melting point was 71 to 73 °C. Molecule `CN1C(=O)C(N)=C(C(N)=S)C1=O` has a melting point of 282 °C. Molecule `CCOc1ccc(-c2csc(-c3cccc(C(=O)O)c3)n2)cc1` has a melting point of 231 to 232 °C. With `Cc1cccc(NC(=O)OCc2ccccn2)c1CNc1cccn2c(C)c(C)nc12` the melting point was 163 to 165 °C. For `NS(=O)(=O)c1cccc(-c2cccc(-c3nc(-c4ccc(C(F)(F)F)cc4F)cc(C(F)(F)F)n3)c2)c1`, the melting point was 224 °C. With `O=C1C[C@@H]2O[C@@H](CS(=O)(=O)Cc3ccccc3)CN12` (racemic) the melting point was 137 to 145 °C. For `COc1cccc2c1CC(=O)c1cc(C(C)C(N)=O)ccc1S2` (configuration not stated), the melting point was 178 to 180 °C. `CCCNC(C)=C1C(=O)OC(=O)C(C(=O)C=Cc2cccc(OC)c2OC)=C1O` showed a melting point of 180 to 185 °C. `CC(C)(C)OC(=O)N1CC(O)C(NS(=O)(=O)c2ccc(Oc3ccccc3)cc2)C1` (configuration not stated) showed a melting point of 98 to 99 °C. Molecule `O=C(CCl)N(CCc1[nH]c2ccccc2c1-c1ccccc1)CC1CC1` has a melting point of 104 to 106 °C. Work on `COc1ccc2[nH]c(-c3cc(C)c(O)c(C)c3)c(C)c2c1` yielded a melting point of 158 to 159 °C. `CC(=O)C1=CCC2C3CCC4=CC(=O)C=CC4(C)C3(F)C(O)CC12C` (configuration not stated) gave a melting point of 327 to 328 °C. Work on `Cc1ccc(-n2nc(C(C)(C)C)cc2NC(=O)Nc2ccc(-c3c(C(N)=O)[nH]c4ccccc34)cc2)cc1` yielded a melting point greater than 260 °C. In the case of `COc1cc(CNc2ccc3c(c2)N2CCCN=C2S3)cc(OC)c1OC`, the melting point is reported as 191 °C. For `COC(=O)C1=C(C)NC(=S)N(C(=O)Cc2ccccc2)C1c1cccc([N+](=O)[O-])c1` (configuration not stated), the melting point was 155 to 156 °C. Molecule `O=C(O)Cc1cn(-c2ccccc2)nc1-c1ccccc1` has a melting point of 120 to 121 °C. In the case of `COc1ccc(N2CCN(c3c(C)c(C)c4c(c3C)C(c3ccc(C(F)(F)F)cc3)C(C)(C)O4)CC2)cc1` (configuration not stated), the melting point is reported as 208 to 211 °C. Molecule `O=C(O)CC1(O)CCC(N2CCN(CCNc3ccncc3)CC2)CC1` (configuration not stated) has a melting point of 238 to 240 °C. Molecule `Cc1cccc2c(=O)c3cccc(CBr)c3oc12` has a melting point of 171 to 172 °C. `Nc1ccc(S(=O)(=O)Nc2nnc(CO)s2)cc1` gave a melting point of 89 to 90 °C.
